“And” between values parts separate entries of the source, which are not always exact repeats. Equal values may be shown once.
Legend:
Type in all cases: physicochemical
[1] = λmax of the long-wave absorption band of the dye; conditions: Table 1 / Examples; several values = several maxima
Procedure: (§1) Table 1 given below lists the values of negative dichroism of the anthraquinone derivative of general formula /1/ for examples 1-30 in a liquid-crystalline mixture ZK-807; Table 2 illustrates physico-chemical characteristics, and Table 3--limiting solubility in liquid-crystalline mixtures (ZK-807, ZLI-1840, 3010, SP-586, ZK-1282) at 20° C.

[2] = negative dichroism S in a liquid-crystalline mixture; conditions: liquid-crystalline mixture ZK-807
Procedure: as §1

[3] = limiting solubility in liquid-crystalline mixtures at 20° C.; conditions: for Solubility (limiting), known derivatives: Table 6, derivatives of SU 1089084

Row | λmax [1] | negative dichroism S [2] | Solubility (limiting) ([3]; 3010, 20° C.) [mass %] | Solubility (limiting) ([3]; SP-586, 20° C.) [mass %] | Solubility (limiting) ([3]; ZK-807, 20° C.) [mass %] | Solubility (limiting) ([3]; ZLI-1840, 20° C.) [mass %] | Solubility (limiting) ([3]; ZK-1282, 20° C.) [mass %] | Solubility (limiting), known derivatives ([3]; ZK-807, 20° C.) [mass %] | Solubility (limiting), known derivatives ([3]; ZLI-1840, 20° C.) [mass %] | solubility exceeds the solubility of the known analogue ([3]; ratio to known derivative, No. 2, 7 and 6 of Table 3 vs No. 1, 5 and 6 of Table 6) [times] | SMILES
1 | 465 nm | -0.34 | 1.1 | 2.0 | 5.0 | 1.0 |  |  |  |  | CCCCc1ccc(C(=O)Nc2ccc(OC(=O)c3ccc(CCCC)cc3)c3c2C(=O)c2c(NC(=O)c4ccc(CCCC)cc4)cc(C)c(OC(=O)c4ccc(CCCC)cc4)c2C3=O)cc1 [Compound 3, 1,8Bis-(4-butylbenzamido)-4,5-bis-(4-butylbenzoyloxy)-3-methylanthraquinone]
2 |  |  |  |  | 2.0 |  |  |  |  |  | CCCCCCCCNc1cc(CCCC)c(NC(=O)c2ccc(-c3ccc(CCCCCCCC)cc3)cc2)c2c1C(=O)c1ccccc1C2=O [Compound 1]
3 |  |  |  |  |  |  |  | 0.8 | 0.4 |  | CCCCCCCCc1ccc(-c2ccc(C(=O)Nc3ccc(NCCCC)c4c3C(=O)c3ccccc3C4=O)cc2)cc1 [No. 1, Table 6, reference compound]
4 | 475 nm | -0.22 |  | 2.9 | 4.0 | 3.6 |  |  |  | 2.5 | CCCCc1ccc(C(=O)Nc2cc(CCCC)c(NC(=O)c3ccc(CCCC)cc3)c3c2C(=O)c2ccccc2C3=O)cc1 [Compound 2, 1,4-Bis(4-butylbenzamido)-2-butylanthraquinone]
5 |  |  |  |  |  |  |  | 0.9 | 0.5 |  | CCCCCc1ccc(-c2ccc(C(=O)Nc3ccc(NCCCC)c4c3C(=O)c3ccccc3C4=O)cc2)cc1 [No. 2, Table 6, reference compound]

Second part, the compound before the results:

Row | SMILES | λmax [1] | negative dichroism S [2] | Solubility (limiting) ([3]; 3010, 20° C.) [mass %] | Solubility (limiting) ([3]; SP-586, 20° C.) [mass %] | Solubility (limiting) ([3]; ZK-807, 20° C.) [mass %] | Solubility (limiting) ([3]; ZLI-1840, 20° C.) [mass %] | Solubility (limiting) ([3]; ZK-1282, 20° C.) [mass %] | Solubility (limiting), known derivatives ([3]; ZK-807, 20° C.) [mass %] | Solubility (limiting), known derivatives ([3]; ZLI-1840, 20° C.) [mass %] | solubility exceeds the solubility of the known analogue ([3]; ratio to known derivative, No. 2, 7 and 6 of Table 3 vs No. 1, 5 and 6 of Table 6) [times]
6 | CCCCCc1cc(NC(=O)c2ccc(CCCC)cc2)c2c(c1OC(=O)c1ccc(CCCC)cc1)C(=O)c1c(OC(=O)c3ccc(CCCC)cc3)c(CCCCC)cc(NC(=O)c3ccc(CCCC)cc3)c1C2=O [Compound 14] | 458 nm and 470 nm | -0.32 | 4.46 | 3.78 | 9.5 | 3.8 | 4.0 |  |  | 
7 | CCCCCC1CCC(c2ccc(C(=O)Nc3cc(CCCC)c(OC(=O)c4ccc(C5CCC(CCCCC)CC5)cc4)c4c3C(=O)c3c(NC(=O)c5ccc(C6CCC(CCCCC)CC6)cc5)cc(CCCC)c(OC(=O)c5ccc(C6CCC(CCCCC)CC6)cc5)c3C4=O)cc2)CC1 (stereo not drawn) [Compound 8] | 466 nm | -0.38 | 2.6 |  | 11.0 | 5.7 | 1.8 |  |  | 
8 | CCCCCCc1ccc(C(=O)Nc2cc(CCCCC)c(O)c3c2C(=O)c2c(NC(=O)c4ccc(CCCCCC)cc4)cc(CCCCC)c(OC(=O)c4ccc(CCCCCC)cc4)c2C3=O)cc1 [Compound 26] | 542 nm | -0.31 | 1.0 |  | 2.9 | 1.1 | 0.7 |  |  | 
9 | CCCCc1cc(NC(=O)c2ccc(C3CCC(CCCC)CC3)cc2)c2c(c1OC(=O)CCC)C(=O)c1c(OC(=O)CCC)c(CCCC)cc(NC(=O)c3ccc(C4CCC(CCCC)CC4)cc3)c1C2=O (stereo not drawn) [Compound 13] | 470 nm | -0.37 | 1.75 |  | 4.9 | 2.1 |  |  |  | 
10 | CCCCC[C@H]1CC[C@H](c2ccc(C(=O)Nc3cc(CCCC)c(O)c4c3C(=O)c3c(NC(=O)c5ccc([C@H]6CC[C@H](CCCCC)CC6)cc5)cc(CCCC)c(O)c3C4=O)cc2)CC1 [Compound 29, 1,8-Bis-4-(trans-4-amylcyclohexyl)benzamido-3,6-dibutyl-4,5-dioxyanthraquinone] | 563 nm and 606 nm | -0.32 | 1.0 |  | 1.0 | 1.0 | 1.0 |  |  | 
11 | CCCCc1cc(NC(=O)c2ccc(C3CCC(CCCC)CC3)cc2)c2c(c1O)C(=O)c1c(O)c(CCCC)cc(NC(=O)c3ccc(C4CCC(CCCC)CC4)cc3)c1C2=O (stereo not drawn) [Compound 30] | 566 nm and 608 nm | -0.34 |  |  |  |  |  |  |  | 
12 | CCCCCC1CCC(c2ccc(C(=O)Nc3cc(CCCC)c(O)c4c3C(=O)c3c(NC(=O)c5ccc(C6CCC(CCCCC)CC6)cc5)cc(CCCC)c(OC(=O)C5CCC(CCCC)CC5)c3C4=O)cc2)CC1 (stereo not drawn) [Compound 21] | 542 nm | -0.37 | 3.3 |  |  | 3.0 | 2.7 |  |  | 
